Results taken from patent publication US9181259B2 (LEO PHARMA A/S, priority 2012, dated 2015).
Counter-ions that a name gives are not always drawn.

What was measured:
[1] = Hepatic intrinsic clearance following incubation in human liver microsomes; type: in vitro ADME; details: NADPH regenerating system, 0-30 min, 37 °C
Description: Hepatic Extraction Ratio from Hepatic Intrinsic Clearance Following Incubation in Human Liver Microsomes
The general procedure consists of an automated incubation system and LC-MS/MS analysis with human liver microsomes. Human liver microsomes are thawed rapidly in a waterbath at 37° C. and kept on ice until use. The human liver microsomes are diluted with 50 mM potassium phosphate buffer pH 7.4 to a protein concentration of 0.55 mg/mL. Test compounds and positive controls (Verapamil and Dextromethorphan, positive controls for CYP3A4 for CYP2D6 isoforms, respectively) are dissolved in methanol (or other appropriate solvent, if necessary) in order to obtain a 5 mM solution which is further diluted to the concentration of 50 μM. The stock solutions are prepared immediately before the test.
5 μL of 50 μM test compounds and controls are added to 445 μL-of the 0.55 mg/mL microsomes solution and the incubation mixture are pre-warmed at 37° C. for 5 minutes.
The incubation reactions are initiated by adding 50 μL of pre-warmed NADPH regenerating system to the incubation mixtures. 50 μL-aliquots will be taken from the incubation mixtures at: 0, 3, 6, 9, 15 and 30 minutes and the reactions are stopped by adding 100 μL of ACN containing Rolipram, used as generic Internal Standard (1S). Samples are then diluted with 120 μL of Milli-Q water and centrifuged at 3000 rpm for 10 minutes, prior the LC-MS/MS analysis.
The integrated peak areas for test compounds at the selected time points are divided by the respective peak areas of the IS and the percent of parent remaining is calculated by normalizing the peak area ratio of parent to IS at 0 min. Observed rate constant (kobs) for parent degradation is calculated by determining the slope of the line of the graph of the natural log of percentage parent remaining versus time of incubation. From the rate of depletion (min-1) and volume of the incubation (mL), clearance is estimated. This is scaled for the protein in the incubation relative to that in the intact liver, for all species (mL/min/g liver).
Values for the Human in vitro Clint are expressed as mL/min/g liver.
Assuming a liver weight of 25.7 g/kg and a liver blood flow of 20.7 mL/min/kg, the hepatic extraction ratio, Eh, can be derived from the Human in vitro Clint:
E.g. a Human in vitro Clint of 2.4 mL/min/g liver corresponds to a hepatic extraction ratio of 75%.
Some compounds of the present invention were tested according to example 121.

NK1 receptor = biological target: T1, NK1 receptor (Homo sapiens, UniProt P25103); assay: NK1 receptor mediated intracellular [Ca2+] mobilization in U251 MG cells using FLIPR; type: cell-based; details: antagonist potency against Substance P (EC80), normalized to 100 nM Aprepitant, read-out: U251MG (FLIPR pIC50) (converted)
T1 construct: Measurement of NK1 Receptor Mediated Intracellular [Ca^2+]; Mobilization in U251 MG Cells Using FLIPR; endogenous in cells; host or cells: U251 MG cells
How it was run: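 Fluo-4-loaded U251 MG cells were preincubated with compound (0.5% DMSO final), with any agonist effect read for 5 min, then 10 min more at 37 °C before Substance P at EC80. Peak FLIPR fluorescence change was read, and IC50 came from a four-parameter fit as the midpoint between fitted top and bottom.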

T1 sequence (P25103 whole entry): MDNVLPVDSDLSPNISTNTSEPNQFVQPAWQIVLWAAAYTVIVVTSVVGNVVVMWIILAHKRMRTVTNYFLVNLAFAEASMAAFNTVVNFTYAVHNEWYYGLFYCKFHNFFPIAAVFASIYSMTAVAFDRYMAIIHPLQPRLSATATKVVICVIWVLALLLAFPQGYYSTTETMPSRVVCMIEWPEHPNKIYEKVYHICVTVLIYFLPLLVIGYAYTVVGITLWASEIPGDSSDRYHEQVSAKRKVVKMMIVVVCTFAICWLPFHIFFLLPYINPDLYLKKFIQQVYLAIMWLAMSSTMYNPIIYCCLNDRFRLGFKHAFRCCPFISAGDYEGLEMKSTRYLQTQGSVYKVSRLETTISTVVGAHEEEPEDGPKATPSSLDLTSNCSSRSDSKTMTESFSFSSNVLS

Structure (SMILES): Cc1ccccc1C1C2CC3(CCN(C)CC3)C(=O)N2CCN1C(=O)N(C)Cc1cc(C(F)(F)F)cc(C(F)(F)F)c1 (racemic) [Compound 45, N-{[3,5-bis(trifluoromethyl)phenyl]methyl}-N,1-dimethyl-4′-(2-methylphenyl)-1′-oxo-hexahydro-1′H-spiro[piperidine-4,2′-pyrrolo[1,2-a]piperazine]-5′-carboxamide]
- Human in vitro Clint (mL/min/g liver) [1]: 1.9 mL/min/g liver
- IC50 (NK1 receptor): 0.166 nM

Structure (SMILES): Cc1ccccc1C1C2CCC(=O)N2CCN1C(=O)N(C)Cc1cc(F)cc(C(F)(F)F)c1 (single isomer, unassigned) [Compound 3, N-{[3-fluoro-5-(trifluoromethyl)phenyl]methyl}-N-methyl-1-(2-methylphenyl)-6-oxo-octahydropyrrolo[1,2-a]piperazine-2-carboxamide]
- Human in vitro Clint (mL/min/g liver) [1]: 9.5 mL/min/g liver
- IC50 (NK1 receptor): 1.38 nM

Structure (SMILES): Cc1ccccc1C1C2CCC(=O)N2CCN1C(=O)N(C)Cc1cc(C(F)(F)F)cc(C(F)(F)F)c1 (single isomer, unassigned) [Compound 18, N-{[3,5-bis(trifluoromethyl)phenyl]methyl}-N-methyl-1-(2-methylphenyl)-6-oxo-octahydropyrrolo[1,2-a]piperazine-2-carboxamide]
- Human in vitro Clint (mL/min/g liver) [1]: 2.8 mL/min/g liver
- IC50 (NK1 receptor): 0.603 nM

Structure (SMILES): Cc1ccccc1C1C2CC(CO)C(=O)N2CCN1C(=O)N(C)Cc1cc(C(F)(F)F)cc(C(F)(F)F)c1 (single isomer, unassigned) [Compound 22, N-{[3,5-bis(trifluoromethyl)phenyl]methyl}-7-(hydroxymethyl)-N-methyl-1-(2-methylphenyl)-6-oxo-octahydropyrrolo[1,2-a]piperazine-2-carboxamide]
- Human in vitro Clint (mL/min/g liver) [1]: 0.8 mL/min/g liver
- IC50 (NK1 receptor): 0.0513 nM

Structure (SMILES): Cc1ccccc1C1C2CC(C)(C(=O)N(C)C)C(=O)N2CCN1C(=O)N(C)Cc1cc(C(F)(F)F)cc(C(F)(F)F)c1 (single isomer, unassigned) [Compound 26, 2-N-{[3,5-bis(trifluoromethyl)phenyl]methyl}-2-N,7-N,7-N,7-tetramethyl-1-(2-methylphenyl)-6-oxo-octahydropyrrolo[1,2-a]piperazine-2,7-dicarboxamide]
- Human in vitro Clint (mL/min/g liver) [1]: 1.0 mL/min/g liver
- IC50 (NK1 receptor): 0.661 nM

Structure (SMILES): Cc1ccccc1C1C2CC(CN3CCOCC3)C(=O)N2CCN1C(=O)N(C)Cc1cc(C(F)(F)F)cc(C(F)(F)F)c1 (single isomer, unassigned) [Compound 29, N-{[3,5-bis(trifluoromethyl)phenyl]methyl}-N-methyl-1-(2-methylphenyl)-7-(morpholin-4-ylmethyl)-6-oxo-octahydropyrrolo[1,2-a]piperazine-2-carboxamide]
- Human in vitro Clint (mL/min/g liver) [1]: 6.4 mL/min/g liver
- IC50 (NK1 receptor): 0.398 nM

Structure (SMILES): Cc1ccccc1C1C2CC(CN3CCCC3)C(=O)N2CCN1C(=O)N(C)Cc1cc(C(F)(F)F)cc(C(F)(F)F)c1 (single isomer, unassigned) [Compound 30, N-{[3,5-bis(trifluoromethyl)phenyl]methyl}-N-methyl-1-(2-methylphenyl)-6-oxo-7-(pyrrolidin-1-ylmethyl)-octahydropyrrolo[1,2-a]piperazine-2-carboxamide]
- Human in vitro Clint (mL/min/g liver) [1]: 2.4 mL/min/g liver
- IC50 (NK1 receptor): 0.38 nM

Structure (SMILES): Cc1ccccc1C1C2CC(CN3CCOCC3)C(=O)N2CCN1C(=O)N(C)Cc1cc(C(F)(F)F)cc(C(F)(F)F)c1 (single isomer, unassigned) [Compound 41]
- Human in vitro Clint (mL/min/g liver) [1]: 2.9 mL/min/g liver
- IC50 (NK1 receptor): 0.224 nM

Structure (SMILES): Cc1ccccc1C1C2CC(CCO)(CCO)C(=O)N2CCN1C(=O)N(C)Cc1cc(C(F)(F)F)cc(C(F)(F)F)c1 (single isomer, unassigned) [Compound 43, N-{[3,5-bis(trifluoromethyl)phenyl]methyl}-7,7-bis(2-hydroxyethyl)-N-methyl-1-(2-methylphenyl)-6-oxo-octahydropyrrolo[1,2-a]piperazine-2-carboxamide]
- Human in vitro Clint (mL/min/g liver) [1]: 3.7 mL/min/g liver
- IC50 (NK1 receptor): 0.525 nM

Structure (SMILES): Cc1ccccc1C1C2CC3(CCN(C)CC3)C(=O)N2CCN1C(=O)N(C)Cc1cc(C(F)(F)F)cc(C(F)(F)F)c1 (single isomer, unassigned) [Compound 47, N-{[3,5-bis(trifluoromethyl)phenyl]methyl}-N,1-dimethyl-4′-(2-methylphenyl)-1′-oxo-hexahydro-1′H-spiro[piperidine-4,2′-pyrrolo[1,2-a]piperazine]-5′-carboxamide]
- Human in vitro Clint (mL/min/g liver) [1]: 0.4 mL/min/g liver
- IC50 (NK1 receptor): 0.0933 nM

Structure (SMILES): Cc1ccccc1C1C2CC(CO)CN2CCN1C(=O)N(C)Cc1cc(C(F)(F)F)cc(C(F)(F)F)c1 (single isomer, unassigned) [Compound 49, N-{[3,5-bis(trifluoromethyl)phenyl]methyl}-7-(hydroxymethyl)-N-methyl-1-(2-methylphenyl)-octahydropyrrolo[1,2-a]piperazine-2-carboxamide]
- Human in vitro Clint (mL/min/g liver) [1]: 1.9 mL/min/g liver
- IC50 (NK1 receptor): 0.347 nM

Structure (SMILES): Cc1ccccc1C1C2CC(CN3CCOCC3)C(=O)N2CCN1C(=O)N(C)Cc1cc(C(F)(F)F)cc(C(F)(F)F)c1 (single isomer, unassigned) [Compound 50]
- Human in vitro Clint (mL/min/g liver) [1]: 2.9 mL/min/g liver
- IC50 (NK1 receptor): 0.224 nM

Structure (SMILES): Cc1ccccc1C1C2CC(CO)CN2CCN1C(=O)N(C)Cc1cc(C(F)(F)F)cc(C(F)(F)F)c1 (single isomer, unassigned) [Compound 52, N-{[3,5-bis(trifluoromethyl)phenyl]methyl}-7-(hydroxymethyl)-N-methyl-1-(2-methylphenyl)-octahydropyrrolo[1,2-a]piperazine-2-carboxamide; methanesulfonic acid salt]
- Human in vitro Clint (mL/min/g liver) [1]: 3.1 mL/min/g liver
- IC50 (NK1 receptor): 0.513 nM

Structure (SMILES): Cc1ccccc1C1C2CC(CO)C(=O)N2CCN1C(=O)N(C)[C@H](C)c1cc(C(F)(F)F)cc(C(F)(F)F)c1 (single isomer, unassigned) [Compound 56]
- Human in vitro Clint (mL/min/g liver) [1]: 0.34 mL/min/g liver
- IC50 (NK1 receptor): 0.112 nM

Structure (SMILES): Cc1ccccc1C1C2CCCN2CCN1C(=O)N(C)[C@H](C)c1cc(C(F)(F)F)cc(C(F)(F)F)c1 (single isomer, unassigned) [Compound 63]
- Human in vitro Clint (mL/min/g liver) [1]: 11 mL/min/g liver
- IC50 (NK1 receptor): 0.324 nM

Structure (SMILES): Cc1ccccc1C1C2CC(CCO)(CCO)CN2CCN1C(=O)N(C)Cc1cc(C(F)(F)F)cc(C(F)(F)F)c1 (single isomer, unassigned) [Compound 66, N-{[3,5-bis(trifluoromethyl)phenyl]methyl}-7,7-bis(2-hydroxyethyl)-N-methyl-1-(2-methylphenyl)-octahydropyrrolo[1,2-a]piperazine-2-carboxamide]
- Human in vitro Clint (mL/min/g liver) [1]: 4.2 mL/min/g liver
- IC50 (NK1 receptor): 0.0794 nM

Structure (SMILES): Cc1ccccc1[C@H]1[C@H]2CCC(=O)N2CCN1C(=O)N(C)[C@H](C)c1cc(C(F)(F)F)cc(C(F)(F)F)c1 (single isomer, unassigned) [Compound 75]
- Human in vitro Clint (mL/min/g liver) [1]: 32 mL/min/g liver
- IC50 (NK1 receptor): 0.0316 nM

Structure (SMILES): Cc1ccccc1[C@H]1[C@@H]2CC(CCO)(CCO)C(=O)N2CCN1C(=O)N(C)Cc1cc(F)cc(C(F)(F)F)c1 [Compound 76, (1S,8aS)-N-(3-fluoro-5-(trifluoromethyl)benzyl)-7,7-bis(2-hydroxyethyl)-N-methyl-6-oxo-1-o-tolylhexahydropyrrolo[1,2-a]pyrazine-2(1H)-carboxamide]
- Human in vitro Clint (mL/min/g liver) [1]: 12 mL/min/g liver
- IC50 (NK1 receptor): 0.148 nM
